Values quoted from earlier work as cited in patent publication CN115177586A, “一种卡泊三醇组合物” (Jiangsu Zhiyuan Pharmaceutical Co ltd, priority 2022, dated 2022).

Conditions: not told

permeability: 渗透性极差
SMILES: C=C1/C(=C\C=C2/CCC[C@]3(C)[C@@H]([C@H](C)/C=C/[C@@H](O)C4CC4)CC[C@@H]23)C[C@@H](O)C[C@@H]1O [卡泊三醇]
